From patent US20220249538A1, “TREATMENT AGENT FOR SEX HORMONE-INSENSITIVE GREB1-POSITIVE TUMORS” (OSAKA UNIVERSITY, priority 2019, published 2022)
d = 2'-deoxy (DNA); r = 2'-OH (RNA)

What was measured:
[1] = system: mouse fetal liver cells (BMEL); experiment: mRNA expression in BMEL cells by real-time PCR; assay type: cell-based; conditions: CHIR99021 final concentration 5 μM
MCF7 = experiment: mRNA expression in MCF7 cells by real-time PCR; assay type: cell-based, human
Huh6 cells = experiment: mRNA expression in Huh6 cells by real-time PCR; assay type: cell-based, human; conditions: as in mRNA expression of Axin2
Procedure: Next, the mechanism for regulating expression of GREB1 in hepatoblastoma by YAP and c-Met was investigated. […] However, in Huh6 cells and HepG2 cells, knockdown of YAP/TAZ had no effect on expression of GREB1 (see b of FIG. 13). Further, when Huh6 cells was treated with CHIR99021, or treated with XMU-MP1, which has an inhibitory effect on Mst1/2 kinase and is an activator of YAP, or treated with CHIR99021 and XMU-MP1 in combination, mRNA expression of GREB1 was suppressed as in mRNA expression of Axin2 (see c of FIG. 13).

[2] = system: HLE, SNU-387 SNU-449, and Huh7; experiment: mRNA expression in hepatocellular cancer cells after CHIR99021 by real-time PCR; assay type: cell-based, human; conditions: SNU-387, SNU-449, Huh7, CHIR99021 final concentration 5 μM
liver tumors of BYM mice = experiment: Tumorigenesis by HTVi (hydrodynamic tail vein injection), BYM mice with GREB1 shRNA; assay type: in vivo
Procedure: In the presence of Greb1 shRNA #3 (SEQ ID NO: 8) (20 μg) or control, and pLIVE-SB13 (8 μg), pT2BH-YAPS127A (20 μg), pT2BH-ΔN90 β-catenin-mutLuc3 (20 μg), pT3-EF1a-cMET (20 μg), and GFP2ALuc were diluted in 2.5 ml of physiological saline, and injected into tail veins of 8- to 9-week old male wild-type C57BL6/N mice within 5 to 7 seconds. Livers of the mice were collected at a predetermined time after injection (or at occurrence of the tumor), and various parameters associated with tumorigenesis were assessed. Specifically, this assessment was performed according to techniques described in Tao, J. et al., (2014). Gastroenterology 147, 690-701 and Tward, A. D. et al, (2007). Proc Natl Acad Sci USA 104, 14771-14776. In this evaluation, ΔN90 β-catenin refers to a β-catenin mutant in which amino acids at positions 1 to 90 of human ft-catenin were deleted, and YAPS127A refers to a YAP mutant in which serine at positon 127 of YAP was substituted by alanine.
Further, ΔN90 β-catenin, YapS127A, and c-Met were administered to mice together with GREB1 shRNA, and the livers were collected 7 to 8 weeks after administration. As a result, in mice transduced with ΔN90 β-catenin, YAPS127A, and c-Met (BYM mice, control), a plurality of nodules were observed on the entire surfaces of the livers (see a of FIG. 14). On the other hand, in mice transduced with GREB1 shRNA together with ΔN90 β-catenin, YAPS127A, and c-Met (BYM GREB1 KD mice), the nodules in the liver were suppressed (see a of FIG. 14).

HepG2 cells [3] = experiment: mRNA (real-time PCR) and protein (lysate probing) expression in HepG2 cells; assay type: cell-based, human
Procedure: (§1) Using RNAiMAX (Life Technologies/Thermo Fisher Scientific), HepG2 cells, Huh6 cells, Hep3B cells, JHH7 cells, and SKMEL28 cells were each transfected with each siRNA (10 nm). In experiments, the cells were used from 48 to 120 hours after transfection.

GREB1 = GREB1 expression in HepG2 cells after GREB1 siRNA or GREB1 ASO (cell lysates probed with anti-GREB1 antibody); assay type: cell-based, human; conditions: siRNA 10 nm, lysate probing
Procedure: Phosphorothioated I5-mer antisense oligonucleotides (ASOs) containing AmNA monomers were prepared (synthesized by GeneDesign (Ibaraki, Japan)). In the present specification, “hGREB1-6424-AmNA (15)” is sometimes simply referred to as “ASO-6424” or “GREB1 ASO-6424”. Similar abbreviations are used for describing other ASOs. Using RNAiMAX (Invitrogen, Carlsbad, Calif., USA), HepG2 or COLO679 cells were transfected with 10 nM of ASOs. In experiments, the cells were used from 36 to 48 hours after transfection.
as §1
As reported previously, knockdown of β-catenin decreased HepG2 cell proliferation (see a of FIG. 3). […] Thus, to elucidate the role of GREB1 in HepG2 cells, knockdown of GREB1 was carried out using two different siRNAs.
Next, HepG2 cells were transfected with control ASO or each of the above-described GREB1 ASOs, cultured in a medium containing 10% FBS for 2 days, and the cell lysates were probed with anti-GREB1 antibody and anti-HSP90 antibody.

HepG2 cells [4] = experiment: Cell viability by propidium iodide and Hoechst33342 staining; assay type: cell-based, human; conditions: medium without Z-VAD, 0.1% FBS, 2 days; PI and Hoechst33342
Procedure: Further, HepG2 cells were transfected with control siRNA or siRNAs (GREB1 #1 siRNA and GREB1 #2 siRNA), cultured in media (caspase inhibitor Z-VAD was contained in one condition, and not contained in the other condition) containing 0.1% FBS for 2 days, stained with propidium iodide (PI, […]) and Hoechst33342 (nucleus), and the cell viability was evaluated.
Further, HepG2 cells transfected with control siRNA, GREB1 siRNA (GREB1 #2 siRNA), p15 siRNA, or siRNA of GREB1 (GREB1 #2 siRNA) and siRNA of p15 in combination were cultured in media (caspase inhibitor Z-VAD was contained in one condition, and not contained in the other condition) containing 0.1% FBS for 2 days, stained with propidium iodide (PI) and Hoechst33342, and the cell viability was calculated.

HepG2 cells [5] = experiment: Cell proliferation assay, two-dimensional culture (plastic dish), Cyquant; assay type: cell-based, human
Procedure: Cells were seeded on a plate at 1.0×10^4 cells/mL, and, after 12 hours, the medium was replaced with a medium containing 10% serum. While the cell number was counted every 48 hours, the cells were cultured up to 10 days. The measurement of the cell number was performed using Cyquant NF assays (Life Technologies/Thermo Fisher Scientific) according to protocols recommended by the manufacturer.
Mock HepG2 cells (having a vector only, containing no GREB1) or GREB1-transduced HepG2 cells were transfected with control siRNA or two different types of siRNA (GREB1 #1 siRNA and GREB1 #2 siRNA), then two-dimensional culture (plastic dish culture) was performed, and a relative cell number was calculated by Cyquant assay overtime. As a result, in GREB1 knockdown, proliferative capacity of HepG2 cells in two-dimensional culture was reduced. However, when GREB1-transduced HepG2 cells were transfected with siRNAs against GREB1 (GREB1 #1 siRNA/GREB1 and GREB1 #2 siRNA/GREB1), the proliferative capacity of HepG2 cells was not affected (see a of FIG. 4).

[6] = CHIR99021 in the presence or absence of ICI-182,786
[7] = BYM+ GREB1 shRNA mouse vs BYM mouse without knockdown
[8] = tumor nodules of BYM GREB1 KD mice K2 and K4, real-time PCR

Cc1c[nH]c(-c2cnc(NCCNc3ccc(C#N)cn3)nc2-c2ccc(Cl)cc2Cl)n1 [CHIR99021]
expression of GREB1 [1]: increased | expression of Axin2 (MCF7; [6]): increased | expression of GREB1 (MCF7; [6]): not increased | mRNA expression of GREB1 (Huh6 cells): suppressed | expression of Axin2 [2]: increased | expression of GREB1 [2]: not increased

CN1C(=O)c2sccc2N(C)c2nc(Nc3ccc(S(N)(=O)=O)cc3)ncc21 [XMU-MP1]
mRNA expression of GREB1 (Huh6 cells): suppressed

GREB1 shRNA: shRNA against mouse Greb1, encoding DNA SEQ ID NO: 8, given as pT2BH-GFP2ALuc plasmid by hydrodynamic injection (DNA CCGGCTACTTTGTTAGCAATGATATCTCGAGATATCATTGCTAACAAAGTAGTTTTTTG)
incidence rate of tumorigenesis (liver tumors of BYM mice; BYM GREB1 KD mice K1 to K6): decreased | mice in which any tumor was not observed (liver tumors of BYM mice; BYM GREB1 KD mice K1 to K6): 4 out of the 6 | nodules in the liver (liver tumors of BYM mice; BYM mice, livers collected 7 to 8 weeks after administration, shRNA plasmid 20 μg HTVi): suppressed | serum AFP level (liver tumors of BYM mice; [7]): dramatically decreased | weight of the liver (liver tumors of BYM mice; [7]): dramatically decreased | GREB1 mRNA expression levels in tumors (liver tumors of BYM mice; [8]): low | expression levels of DLK1 and TACSTD1 in tumors (liver tumors of BYM mice; [8]): the same as those of the GREB1 low group of BYM mice

GREB1 #1 siRNA: siRNA against human GREB1; sense 5′-GCCAUUCGUGUGCUUCCAUTT-3′ (SEQ ID NO: 4), antisense SEQ ID NO: 5 (antisense AUGGAAGCACACGAAUGGCTT; sugars from the 5' end r19 d2, backbone not given here)
amounts of cleaved caspase 3 and PARP1 (HepG2 cells [3]; HepG2 cells, 0.1% FBS for 2 days, lysate probing): increased | expressions of β-catenin and Axin2 (HepG2 cells [3]; HepG2 cells, GREB1 knockdown, lysate probing): no effect | expression of cell cycle regulators cyclinA, cyclinB, phosphorylated histone H3 (HepG2 cells [3]; HepG2 cells, medium containing 1% FBS for 1 day, lysate probing): decreases | knockdown of GREB1 (anti-GREB1 antibody) (GREB1): knocked down | cell death of HepG2 cells (HepG2 cells [4]): elevated cell death | proliferative capacity of HepG2 cells in two-dimensional culture (HepG2 cells [5]; GREB1-transduced HepG2 cells): not affected | proliferative capacity of HepG2 cells in two-dimensional culture (HepG2 cells [5]; mock HepG2 cells, relative cell number by Cyquant over time): reduced

C[C@]12CC[C@@H]3c4ccc(O)cc4C[C@@H](CCCCCCCCC[S+]([O-])CCCC(F)(F)C(F)(F)F)[C@H]3[C@@H]1CC[C@@H]2O (stereo partly drawn) [ICI-182,786]
expression of GREB1 (MCF7; ICI-182,786 treatment, real-time PCR): dramatically decreased | mRNA expression of PAI-1 (MCF7; estrogen receptor antagonist treatment): suppresses | expression level of GREB1 mRNA (HepG2 cells [3]; HepG2 cells treated for 48 hours, real-time PCR): not affected
